Entries after “also recorded” stand apart in the source; their conditions may differ. Where two headings read alike, the source gives them in different places.
Columns and labels:
[1] = target: T1, BM3 A82F/F87V double mutant (DM) heme domain (Priestia megaterium, UniProt P14779, A83F/F88V); assay: biochemical; assay type: binding, Bacillus megaterium; conditions: for Delta Abs Peak (wavelength maximum of absorbance difference spectrum) / Delta Abs Trough (wavelength minimum of absorbance difference spectrum) / Delta Abs/Soret Peak / Soret Shift (final Soret wavelength at apparent saturation): DM BM3 heme domain; for Delta Abs/Soret Peak: maximal peak-minus-trough value divided by P450 Soret peak value; for Soret Shift (final Soret wavelength at apparent saturation): starting wavelength 418 nm
T1 construct: The BM3 heme domain proteins (WT and the DM A82F/F87V variant) used in this study were expressed as described in our previous studies; made in house; host or cells: E. coli BL21 (DE3)
T1 sequence (P14779 2-472 A83F/F88V): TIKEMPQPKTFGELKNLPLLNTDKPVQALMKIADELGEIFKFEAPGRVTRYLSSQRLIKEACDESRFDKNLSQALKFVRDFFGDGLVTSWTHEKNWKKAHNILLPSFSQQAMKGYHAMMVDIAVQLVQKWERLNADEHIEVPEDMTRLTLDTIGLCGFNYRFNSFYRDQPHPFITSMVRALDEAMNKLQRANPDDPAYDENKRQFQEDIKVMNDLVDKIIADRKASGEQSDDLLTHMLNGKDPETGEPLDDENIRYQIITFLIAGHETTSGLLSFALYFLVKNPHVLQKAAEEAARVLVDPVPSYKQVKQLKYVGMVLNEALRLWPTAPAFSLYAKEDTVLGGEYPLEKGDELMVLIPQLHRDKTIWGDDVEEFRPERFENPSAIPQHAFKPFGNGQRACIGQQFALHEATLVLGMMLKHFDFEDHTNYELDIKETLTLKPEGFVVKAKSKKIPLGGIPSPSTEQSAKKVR
From the text: (§1) This leads to dioxygen (O2) binding to heme iron and to the progression of the P450 catalytic cycle that leads to monooxygenation of the substrate. […] P450 UV-visible binding assays and other spectroscopic studies using azoles are often hindered by the low solubility of many of these drugs. […] The azoles used range widely in size and structure, and contain either an imidazole or a triazole functional group (or two triazole groups in the case of fluconazole). […] Spectral binding data were fitted using hyperbolic (Michaelis-Menten)[30] or tight-binding (Morrison)[31] equations, or by using the Hill function[32] in cases where there was a clear sigmoidal dependence of heme absorbance change on azole drug concentration.
(§2) Experiments were performed using a Cary 50 UV-Visible spectrophotometer (Agilent Technologies Ltd). WT and DM heme domains at concentrations of ~2–4 μM were used, and binding titrations were done by the addition of small (typically 0.2–0.4 μL) volumes of azole ligand stocks (1, 10 or 30 mM, to minimize amounts of solvent carrier used) to a 1 mL heme domain sample in a quartz cuvette. An extinction coefficient of 95 mM^−1 cm^−1 was used for the low-spin forms of the WT and DM heme domains. […] Azole drugs were obtained from Merck Chemicals (Nottingham, UK). All azole compounds used in these and other experiments done in this manuscript were sourced from Sigma Aldrich (Cambridge, UK).
(§3) Data were processed by the subtraction of the spectrum of each successive ligand-bound form (from a specific titration set) from the spectrum of the ligand-free enzyme. This produced a set of difference spectra (for each particular azole titration), from which wavelengths associated with the absorbance minimum (Amin) and maximum (Amax) were readily identified. For each titration point, an absorbance difference value was calculated as Amax minus Amin, using the same wavelength pair throughout an individual experiment. These values were then plotted against the relevant azole ligand concentrations used. […] Assays were done using 25 mM KPi (pH 7) at a constant temperature of 30 °C.

WT BM3 heme domain = target: T2, WT BM3 heme domain (Priestia megaterium, UniProt P14779); assay: biochemical; assay type: binding, Bacillus megaterium; conditions: for Delta Abs/Soret Peak: maximal peak-minus-trough value divided by P450 Soret peak value; for Soret Shift (final Soret wavelength at apparent saturation): starting wavelength 418 nm
T2 construct: The BM3 heme domain proteins (WT and the DM A82F/F87V variant) used in this study were expressed as described in our previous studies; made in house; host or cells: E. coli BL21 (DE3)
T2 sequence (P14779 2-472): as the sequence (P14779 2-472 A83F/F88V) above, with F82A, V87F counted along it
From the text: as §1, §2, §3

P450 BM3 (CYP102A1) = test system: P450 BM3 (CYP102A1); parameters: method as in PMID 10191269; conditions: arachidonic acid as the substrate; cited from earlier work
[2] = DM (A82F/F87V) BM3 heme domain, 25 mM KPi pH 7, 30 °C

In the case of `CCC(C)n1ncn(-c2ccc(N3CCN(c4ccc(OCC5COC(Cn6cncn6)(c6ccc(Cl)cc6Cl)O5)cc4)CC3)cc2)c1=O` (stereo not drawn) [Itraconazole], the “Delta Abs Peak (wavelength maximum of absorbance difference spectrum)” value [1] is reported as 438 nm, the “Delta Abs Trough (wavelength minimum of absorbance difference spectrum)” value [1] is reported as 414 nm and the “Delta Abs/Soret Peak” value [1] is reported as 0.16. For the same compound, the “Soret Shift (final Soret wavelength at apparent saturation)” value (“Soret Shift” for short) [1] was 421 nm, the Kd [1, 2] was 0.05 ± 0.01 µM and the “Soret spectral shift / heme absorbance change on titration (in words)” value (WT BM3 heme domain; WT BM3 heme domain) was “failed to induce a Soret spectral shift of sufficient extent to allow Kd determination; also recorded: no significant spectral shifts”.
For `C[C@@H](c1ncncc1F)[C@](O)(Cn1cncn1)c1ccc(F)cc1F` [Voriconazole], the “Delta Abs Peak (wavelength maximum of absorbance difference spectrum)” value [1] was 435 nm, the “Delta Abs Trough (wavelength minimum of absorbance difference spectrum)” value [1] was 414 nm and the “Delta Abs/Soret Peak” value [1] was 0.21. For the same compound, the “Soret Shift” value [1] was 420 nm, the Kd [1, 2] was 1.9 ± 0.13 µM and the “Soret spectral shift / heme absorbance change on titration (in words)” value (WT BM3 heme domain; WT BM3 heme domain) was “failed to induce a Soret spectral shift of sufficient extent to allow Kd determination”.
In the case of `CCCCC/C=C\C/C=C\C/C=C\C/C=C\CCCC(=O)O` [arachidonic acid], the “catalytic rate for substrate oxidation” value (P450 BM3 (CYP102A1)) is listed as ~ 285 s^−1.
For `CC(C)(C)C(=O)C(Oc1ccc(Cl)cc1)n1ccnc1` (stereo not drawn) [Climbazole], the “Delta Abs Peak (wavelength maximum of absorbance difference spectrum)” value [1] was 430 nm, the “Delta Abs Trough (wavelength minimum of absorbance difference spectrum)” value [1] was 408 nm and the “Delta Abs/Soret Peak” value [1] was 0.50. The “Soret Shift” value [1] was 424 nm, the Kd [1, 2] was 0.32 ± 0.01 µM and the Kd (WT BM3 heme domain) was 1.52 ± 0.02 µM. For the same compound, the “Delta Abs Peak (wavelength maximum of absorbance difference spectrum)” value (WT BM3 heme domain; WT BM3 heme domain) was 433 nm, the “Delta Abs Trough (wavelength minimum of absorbance difference spectrum)” value (WT BM3 heme domain; WT BM3 heme domain) was 413 nm and the “Delta Abs/Soret Peak” value (WT BM3 heme domain; WT BM3 heme domain) was 0.43. For the same compound, the “Soret Shift” value (WT BM3 heme domain; WT BM3 heme domain) was 424 nm.
For `CC[C@@H]([C@H](C)O)n1ncn(-c2ccc(N3CCN(c4ccc(OC[C@@H]5CO[C@@](Cn6cncn6)(c6ccc(F)cc6F)C5)cc4)CC3)cc2)c1=O` [Posaconazole], the “Delta Abs Peak (wavelength maximum of absorbance difference spectrum)” value [1] was 430 nm, the “Delta Abs Trough (wavelength minimum of absorbance difference spectrum)” value [1] was 395 nm and the “Delta Abs/Soret Peak” value [1] was 0.41. For the same compound, the “Soret Shift” value [1] was 422 nm, the Kd [1, 2] was 2.69 ± 0.05 µM and the “Soret spectral shift / heme absorbance change on titration (in words)” value (WT BM3 heme domain; WT BM3 heme domain) was “failed to induce a Soret spectral shift of sufficient extent to allow Kd determination; also recorded: no significant spectral shifts”.
In the case of `OC(Cn1cncn1)(Cn1cncn1)c1ccc(F)cc1F` [Fluconazole], the “Delta Abs Peak (wavelength maximum of absorbance difference spectrum)” value [1] is reported as 434 nm, the “Delta Abs Trough (wavelength minimum of absorbance difference spectrum)” value [1] is reported as 414 nm and the “Delta Abs/Soret Peak” value [1] is reported as 0.19. The “Soret Shift” value [1] was 421 nm, the Kd [1, 2] was 2.91 ± 0.2 µM and the “Soret spectral shift / heme absorbance change on titration (in words)” value (WT BM3 heme domain; WT BM3 heme domain) was “failed to induce a Soret spectral shift of sufficient extent to allow Kd determination”.
For `Clc1ccc(C(Cn2ccnc2)OCc2csc3c(Cl)cccc23)c(Cl)c1` (stereo not drawn) [Sertaconazole nitrate], the “Delta Abs Peak (wavelength maximum of absorbance difference spectrum)” value [1] was 433 nm, the “Delta Abs Trough (wavelength minimum of absorbance difference spectrum)” value [1] was 413 nm and the “Delta Abs/Soret Peak” value [1] was 0.45. For the same compound, the “Soret Shift” value [1] was 423 nm, the Kd [1, 2] was 0.46 ± 0.01 µM and the Kd (WT BM3 heme domain) was 2.44 ± 0.14 µM. For the same compound, the “Delta Abs Peak (wavelength maximum of absorbance difference spectrum)” value (WT BM3 heme domain; WT BM3 heme domain) was 439 nm, the “Delta Abs Trough (wavelength minimum of absorbance difference spectrum)” value (WT BM3 heme domain; WT BM3 heme domain) was 416 nm and the “Delta Abs/Soret Peak” value (WT BM3 heme domain; WT BM3 heme domain) was 0.08. For the same compound, the “Soret Shift” value (WT BM3 heme domain; WT BM3 heme domain) was 419 nm.
For `Clc1ccc(C(Cn2ccnc2)OCc2c(Cl)cccc2Cl)c(Cl)c1` (stereo not drawn) [Isoconazole nitrate], the “Delta Abs Peak (wavelength maximum of absorbance difference spectrum)” value [1] was 435 nm, the “Delta Abs Trough (wavelength minimum of absorbance difference spectrum)” value [1] was 415 nm and the Kd [1, 2] was 0.44 ± 0.02 µM. The Kd (WT BM3 heme domain) was 12 ± 0.5 µM, the “Delta Abs Peak (wavelength maximum of absorbance difference spectrum)” value (WT BM3 heme domain; WT BM3 heme domain) was 436 nm and the “Delta Abs Trough (wavelength minimum of absorbance difference spectrum)” value (WT BM3 heme domain; WT BM3 heme domain) was 415 nm.
For `Clc1ccc(C(Cn2ccnc2)OCc2ccsc2Cl)c(Cl)c1` (stereo not drawn) [Tioconazole], the “Delta Abs Peak (wavelength maximum of absorbance difference spectrum)” value [1] was 434 nm, the “Delta Abs Trough (wavelength minimum of absorbance difference spectrum)” value [1] was 414 nm and the “Delta Abs/Soret Peak” value [1] was 0.44. The “Soret Shift” value [1] was 423 nm, the “Tighter binding to DM heme domain than to WT heme domain” value ([1]; DM versus WT heme domain) was ~ 50 fold and the Kd [1, 2] was 0.39 ± 0.03 µM. For the same compound, the Kd (WT BM3 heme domain; Kd, WT BM3 heme domain, 25 mM KPi pH 7, 30 °C, NB = no binding seen in UV-visible spectroscopic titrations) was 24.5 ± 1.1 µM, the “Delta Abs Peak (wavelength maximum of absorbance difference spectrum)” value (WT BM3 heme domain; WT BM3 heme domain) was 434 nm and the “Delta Abs Trough (wavelength minimum of absorbance difference spectrum)” value (WT BM3 heme domain; WT BM3 heme domain) was 414 nm. For the same compound, the “Delta Abs/Soret Peak” value (WT BM3 heme domain; WT BM3 heme domain) was 0.29 and the “Soret Shift” value (WT BM3 heme domain; WT BM3 heme domain) was 422 nm.
For `Clc1ccc(C(Cn2ccnc2)OCc2ccc(Sc3ccccc3)cc2)c(Cl)c1` (stereo not drawn) [Fenticonazole nitrate], the “Delta Abs Peak (wavelength maximum of absorbance difference spectrum)” value [1] was 434 nm, the “Delta Abs Trough (wavelength minimum of absorbance difference spectrum)” value [1] was 414 nm and the “Delta Abs/Soret Peak” value [1] was 0.44. For the same compound, the “Soret Shift” value [1] was 424 nm, the Kd [1, 2] was 0.52 ± 0.03 µM and the Kd (WT BM3 heme domain) was 1.89 ± 0.05 µM. The “Delta Abs Peak (wavelength maximum of absorbance difference spectrum)” value (WT BM3 heme domain; WT BM3 heme domain) was 434 nm, the “Delta Abs Trough (wavelength minimum of absorbance difference spectrum)” value (WT BM3 heme domain; WT BM3 heme domain) was 415 nm and the “Delta Abs/Soret Peak” value (WT BM3 heme domain; WT BM3 heme domain) was 0.21. For the same compound, the “Soret Shift” value (WT BM3 heme domain; WT BM3 heme domain) was 419 nm.
For `C[C@@H](c1nc(-c2ccc(C#N)cc2)cs1)[C@](O)(Cn1cncn1)c1ccc(F)cc1F` [Ravuconazole], the “Delta Abs Peak (wavelength maximum of absorbance difference spectrum)” value [1] was 434 nm, the “Delta Abs Trough (wavelength minimum of absorbance difference spectrum)” value [1] was 413 nm and the “Delta Abs/Soret Peak” value [1] was 0.21. The “Soret Shift” value [1] was 422 nm, the Kd [1, 2] was 0.34 ± 0.02 µM and the “Soret spectral shift / heme absorbance change on titration (in words)” value (WT BM3 heme domain; WT BM3 heme domain) was “failed to induce a Soret spectral shift of sufficient extent to allow Kd determination; also recorded: no significant spectral shifts”.
In the case of `Clc1ccc(CCC(Cn2ccnc2)Sc2c(Cl)cccc2Cl)cc1` (stereo not drawn) [Butoconazole nitrate], the “Delta Abs Peak (wavelength maximum of absorbance difference spectrum)” value [1] is reported as 433 nm, the “Delta Abs Trough (wavelength minimum of absorbance difference spectrum)” value [1] is reported as 413 nm and the “Delta Abs/Soret Peak” value [1] is reported as 0.47. The “Soret Shift” value [1] was 424 nm, the Kd [1, 2] was 0.47 ± 0.02 µM and the Kd (WT BM3 heme domain) was 3.8 ± 0.12 µM. For the same compound, the “Delta Abs Peak (wavelength maximum of absorbance difference spectrum)” value (WT BM3 heme domain; WT BM3 heme domain) was 434 nm, the “Delta Abs Trough (wavelength minimum of absorbance difference spectrum)” value (WT BM3 heme domain; WT BM3 heme domain) was 413 nm and the “Delta Abs/Soret Peak” value (WT BM3 heme domain; WT BM3 heme domain) was 0.35. The “Soret Shift” value (WT BM3 heme domain; WT BM3 heme domain) was 422 nm.
For `c1ccc(-c2ccc(C(c3ccccc3)n3ccnc3)cc2)cc1` (stereo not drawn) [Bifonazole], the “Delta Abs Peak (wavelength maximum of absorbance difference spectrum)” value [1] was 436 nm, the “Delta Abs Trough (wavelength minimum of absorbance difference spectrum)” value [1] was 413 nm and the “Delta Abs/Soret Peak” value [1] was 0.42. For the same compound, the “Soret Shift” value [1] was 425 nm, the Kd [1, 2] was 0.13 ± 0.05 µM and the Kd ([1]; DM enzyme, Figure S1 legend, tight-binding (Morrison) fit) was 0.13 ± 0.02 µM. The Kd (WT BM3 heme domain) was 3.54 ± 0.05 µM, the “Delta Abs Peak (wavelength maximum of absorbance difference spectrum)” value (WT BM3 heme domain; WT BM3 heme domain) was 434 nm and the “Delta Abs Trough (wavelength minimum of absorbance difference spectrum)” value (WT BM3 heme domain; WT BM3 heme domain) was 413 nm. The “Delta Abs/Soret Peak” value (WT BM3 heme domain; WT BM3 heme domain) was 0.43 and the “Soret Shift” value (WT BM3 heme domain; WT BM3 heme domain) was 423 nm.
